US11578072B2, “Spiro-lactam NMDA receptor modulators and uses thereof” (Aptinyx Inc., priority 2018, dated 2023)

How the values were obtained:
NMDAR2B = biological target: T1, NMDAR2B (Homo sapiens, UniProt Q13224); assay: NMDAR agonist assay, [3H]MK-801 binding, NMDAR2B expressing HEK cell membranes; assay type: biochemical; conditions: 50 μM glutamate
T1 construct: expressed in transfected cells; host or cells: HEK cells (membrane extract)
Procedure: (§1) Assays were conducted as described by Moskal et al., “GLYX-13: a monoclonal antibody-derived peptide that acts as an N-methyl-D-aspartate receptor modulator,” Neuropharmacology, 49, 1077-87, 2005. These studies were designed to determine if the test compounds act to facilitate NMDAR activation in NMDAR2A, NMDAR2B, NMDAR2C or NMDAR2D expressing HEK cell membranes as measured by increases in [3H]MK-801 binding.
(§2) In the assay, 300 μg of NMDAR expressing HEK cell membrane extract protein was preincubated for 15 minutes at 25° C. in the presence of saturating concentrations of glutamate (50 μM) and varying concentrations of test compound (1×10^−15M-1×10^−7M), or 1 mM glycine. Following the addition of 0.3 μCi of [3H]MK-801 (22.5 Ci/mmol), reactions were again incubated for 15 minutes at 25° C. (nonequilibrium conditions). Bound and free [3H]MK-801 were separated via rapid filtration using a Brandel apparatus.
(§3) In analyzing the data, the DPM (disintegrations per minute) of [3H]MK-801 remaining on the filter were measured for each concentration of test compound or for 1 mM glycine. The DPM values for each concentration of a ligand (N=2) were averaged. The baseline value was determined from the best fit curve of the DPM values modeled using the GraphPad program and the log(agonist) vs. response(three parameters) algorithm was then subtracted from all points in the dataset. The % maximal [3H]MK-801 binding was then calculated relative to that of 1 mM glycine: all baseline subtracted DPM values were divided by the average value for 1 mM glycine. The EC50 and % maximal activity were then obtained from the best fit curve of the % maximal [3H]MK-801 binding data modelled using the GraphPad program and the log(agonist) vs. response(three parameters) algorithm.
The tables below summarize the results for the wild type NMDAR agonists NMDAR2A, NMDAR2B, NMDAR2C, and NMDAR2D, and whether the compound is not an agonist (−), is an agonist (+), or is a strong agonist (++), where column A is based on the % maximal [3H]MK-801 binding relative to 1 mM glycine (−=0; <100%=+; and >100%=++); and column B is based on log EC50 values (0=−; >1×10^−9 M (e.g., −8)=+; and <1×10^−9 M (e.g., −10)++).

[1] = Microsomal stability (Human); assay type: in vitro ADME; conditions: human microsomes, after 60 minutes
Procedure: Microsomal stability of disclosed compounds was investigated. The following table indicates the percent of compound remaining after 60 minutes.

NMDAR2C = biological target: T2, NMDAR2C (Homo sapiens, UniProt Q14957); assay: NMDAR agonist assay, [3H]MK-801 binding, NMDAR2C expressing HEK cell membranes; assay type: biochemical; conditions: 50 μM glutamate
T2 construct: expressed in transfected cells; host or cells: HEK cells (membrane extract)
T2 sequence (Q14957 20-1233, species assumed, other chains not shown): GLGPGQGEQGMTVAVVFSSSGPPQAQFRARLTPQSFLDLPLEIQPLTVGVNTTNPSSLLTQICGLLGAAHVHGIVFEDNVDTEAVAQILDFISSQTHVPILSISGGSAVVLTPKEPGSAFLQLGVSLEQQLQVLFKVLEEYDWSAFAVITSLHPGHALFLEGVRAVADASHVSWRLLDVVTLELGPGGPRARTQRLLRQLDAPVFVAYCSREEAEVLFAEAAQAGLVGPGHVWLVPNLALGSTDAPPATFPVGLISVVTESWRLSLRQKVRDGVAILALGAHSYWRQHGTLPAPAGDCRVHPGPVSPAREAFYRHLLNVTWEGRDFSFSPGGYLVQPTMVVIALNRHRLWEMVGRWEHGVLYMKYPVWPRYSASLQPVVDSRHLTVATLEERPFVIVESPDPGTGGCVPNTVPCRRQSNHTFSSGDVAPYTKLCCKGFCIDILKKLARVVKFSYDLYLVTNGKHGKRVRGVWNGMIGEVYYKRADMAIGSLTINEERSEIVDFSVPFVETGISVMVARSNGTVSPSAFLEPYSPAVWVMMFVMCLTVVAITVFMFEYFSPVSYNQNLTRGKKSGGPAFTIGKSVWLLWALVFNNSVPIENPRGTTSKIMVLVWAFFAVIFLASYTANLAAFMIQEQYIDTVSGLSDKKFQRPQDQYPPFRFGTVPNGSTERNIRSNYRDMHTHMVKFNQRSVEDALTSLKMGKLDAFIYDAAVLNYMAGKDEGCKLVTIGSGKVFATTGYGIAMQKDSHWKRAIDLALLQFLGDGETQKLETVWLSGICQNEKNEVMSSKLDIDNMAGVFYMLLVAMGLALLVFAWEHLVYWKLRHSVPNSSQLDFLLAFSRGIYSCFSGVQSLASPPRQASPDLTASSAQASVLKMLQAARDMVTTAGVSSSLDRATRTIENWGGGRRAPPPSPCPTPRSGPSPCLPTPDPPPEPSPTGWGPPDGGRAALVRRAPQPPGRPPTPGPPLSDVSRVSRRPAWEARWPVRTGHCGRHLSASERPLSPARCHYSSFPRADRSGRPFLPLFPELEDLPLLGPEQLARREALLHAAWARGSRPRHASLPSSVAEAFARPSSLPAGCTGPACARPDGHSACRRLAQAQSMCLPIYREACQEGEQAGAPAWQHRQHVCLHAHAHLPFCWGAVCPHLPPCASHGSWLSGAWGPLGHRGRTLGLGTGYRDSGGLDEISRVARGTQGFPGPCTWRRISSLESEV
Procedure: as §1
as §2, with “Bound and free [3H]MK-801 were separated via rapid filtration using a Brandel apparatus.” left out
as §3, with “The DPM values for each concentration of a ligand (N=2) were averaged.” left out, “The EC50 and % maximal activity were then obtained from the best fit curve of the % maximal [3H]MK-801 binding data modelled using the GraphPad program and the log(agonist) vs. response(three parameters) algorithm.” left out

Sprague Dawley rats = assay: Bennett nerve injury assay (mechanical analgesia, paw withdrawal threshold); assay type: in vivo
Procedure: The Bennett model of mechanical analgesia is used to assess the analgesic effects of compounds as measured by paw withdrawal threshold. Bennett G J, Xie Y K, “A peripheral mononeuropathy in rat that produces disorders of pain sensation like those seen in man,” Pain 33:87-107, 1988. […] Vehicle animals receive the surgery and then receive vehicle rather than test compound. Animals were tested 1 hr, 24 h and 1 wk post-test compound or vehicle administration.
Male 2-3 month old Sprague Dawley rats were used. Harlan was the supplier for all studies. Rats were housed in Lucite cages with aspen wood chip bedding, maintained on a 12:12 light:dark cycle (lights on at 5 AM), and given ad libitum access to Purina lab chow (USA) and tap water throughout the study.
Rats were anesthetized using inhaled isoflurane (2.5%). Sciatic nerve chronic constriction nerve injury surgery was performed as previously described (Bennett and Xie, 1988). An incision (˜1.5 cm in length) was made with a scalpel blade dorsally through skin on the right hind limb, parallel and posterior to femur. Using a small pointed hemostat, the biceps femoris and gluteus superficialis muscles were separated. Using curved blunt forceps, the common sciatic nerve was isolated and exposed. For the mechanical analgesia studies, the whole sciatic nerve was ligated. Using hemostats/forceps and chromic gut (5-0), the nerve was loosely ligated with a square knot; 3 ligatures, 1 mm apart were placed on the nerve. […] Testing occurred approximately 2 weeks post-surgery.
During testing, rats were acclimated to the surface of a suspended wire mesh grid (1 cm×1 cm, with the wire being 0.3 cm in diameter) for 15-20 min. Starting from the smallest, each Von Frey filament was pressed perpendicularly to the plantar surface of the affected (ipsilateral) hind paw until slightly bent and then held for 6 second. If an obvious hind paw withdrawal or a flinching behavior immediately after the withdrawal of the filament was not observed, the next larger filament was used in the same manner. In case of a response, a lower filament was used. This was repeated until six responses were collected.
For all studies, animals were baselined prior to study start to test for allodynia (defined as a paw withdrawal threshold under 5). A subset of animals was tested with gabapentin (150 mg/kg, PO) to ensure at least 50% analgesia. Once it was confirmed animals were ready for study initiation, animals were balanced across groups. All study investigators were blind to treatment conditions. Animals were dosed with 0.1, 1 or 10 mg/kg of test compound via oral gavage (PO), control sets of animals were dosed with gabapentin (150 mg/kg, PO) or vehicle (0.5% Na-CMC in 0.9% sterile saline, PO). Testing occurred 1 h post-dosing with animals retested 24 hrs and 1 week post-dosing. The percent analgesia calculations for each animal were made using the following equation: % analgesia=[(log(x)−y)/((log (z)−y)]*100, where x=the paw withdrawal threshold for the drug-treated animal in grams, y=the average of the log(x) values for the vehicle treated group, and z=the paw withdrawal threshold for naïve animals in grams (historical value of 15 used). The results for Compound AD, where the percentage of analgesia is measured at 1 hour, 24 hours, and 1 week after compound administration are as follows: for 0.1 mg/kg dose: 38.7% at 1 h, 34.5% at 24 h, and 19.7% at 1 wk; for 1 mg/kg dose: 24.1% at 1 h, 26.5% at 24 h, and 13.2% at 1 wk; and for 10 mg/kg dose: 61.2% at 1 h, 45.1% at 24 h, and 39.5% at 1 wk.

[2] = IV pharmacokinetics in rats; conditions: Sprague Dawley, in vivo, rat, 2 mg/kg, normal saline
Procedure: Sprague Dawley rats were dosed intravenously using a normal saline formulation containing 2 mg/kg of the compounds identified in the below table. The table below summarizes the results of the IV pharmacokinetics.

T1 sequence (Q13224 27-1484, species assumed, other chains not shown): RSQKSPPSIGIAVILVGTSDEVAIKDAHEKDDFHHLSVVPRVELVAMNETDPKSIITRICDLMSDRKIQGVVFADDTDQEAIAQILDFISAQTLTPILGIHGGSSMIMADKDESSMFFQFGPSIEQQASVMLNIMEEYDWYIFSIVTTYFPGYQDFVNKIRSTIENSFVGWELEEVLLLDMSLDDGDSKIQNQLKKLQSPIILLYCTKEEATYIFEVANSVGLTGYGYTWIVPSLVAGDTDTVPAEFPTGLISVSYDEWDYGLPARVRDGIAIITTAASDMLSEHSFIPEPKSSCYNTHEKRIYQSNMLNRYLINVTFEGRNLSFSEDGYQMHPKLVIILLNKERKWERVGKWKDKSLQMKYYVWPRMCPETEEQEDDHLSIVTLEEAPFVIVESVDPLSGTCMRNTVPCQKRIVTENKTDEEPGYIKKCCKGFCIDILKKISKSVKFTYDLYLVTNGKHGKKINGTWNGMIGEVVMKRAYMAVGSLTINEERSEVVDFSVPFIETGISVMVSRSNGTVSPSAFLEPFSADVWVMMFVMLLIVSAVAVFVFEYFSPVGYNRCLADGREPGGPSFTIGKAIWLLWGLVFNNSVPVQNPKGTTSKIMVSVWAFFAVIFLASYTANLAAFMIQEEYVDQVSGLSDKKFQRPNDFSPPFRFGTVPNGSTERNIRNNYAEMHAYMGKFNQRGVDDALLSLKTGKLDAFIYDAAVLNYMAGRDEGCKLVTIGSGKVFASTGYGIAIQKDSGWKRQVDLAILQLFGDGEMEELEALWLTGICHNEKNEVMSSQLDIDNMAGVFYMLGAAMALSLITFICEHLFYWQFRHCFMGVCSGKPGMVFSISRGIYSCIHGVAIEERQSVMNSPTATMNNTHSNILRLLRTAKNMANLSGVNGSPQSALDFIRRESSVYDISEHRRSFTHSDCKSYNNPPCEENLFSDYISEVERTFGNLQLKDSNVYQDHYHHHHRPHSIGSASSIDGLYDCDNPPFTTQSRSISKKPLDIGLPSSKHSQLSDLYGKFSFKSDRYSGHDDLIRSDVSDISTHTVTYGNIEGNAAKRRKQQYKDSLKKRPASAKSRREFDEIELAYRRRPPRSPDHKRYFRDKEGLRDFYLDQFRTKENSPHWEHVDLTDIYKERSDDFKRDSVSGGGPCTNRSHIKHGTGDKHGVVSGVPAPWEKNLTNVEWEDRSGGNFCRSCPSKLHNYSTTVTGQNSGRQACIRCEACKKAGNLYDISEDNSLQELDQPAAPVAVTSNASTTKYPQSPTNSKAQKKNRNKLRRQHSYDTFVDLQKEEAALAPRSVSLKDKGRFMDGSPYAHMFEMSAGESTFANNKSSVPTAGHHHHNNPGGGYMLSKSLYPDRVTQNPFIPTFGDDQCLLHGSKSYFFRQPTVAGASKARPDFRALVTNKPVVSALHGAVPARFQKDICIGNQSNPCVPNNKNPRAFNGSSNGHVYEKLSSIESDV

NMDAR2B A: % maximal [3H]MK-801 binding relative to 1 mM glycine (NMDAR2B): + (<100%=+) | EC50 (NMDAR2B; read-out: NMDAR2B B: log EC50 (converted)): < 1 nM | Microsomal (Human): percent of compound remaining [1]: 100% | NMDAR2C A: % maximal [3H]MK-801 binding relative to 1 mM glycine (NMDAR2C): + (<100%=+) | EC50 (NMDAR2C; read-out: NMDAR2C B: log EC50 (converted)): < 1 nM | AUC(0-t) [2]: 5280 ng·h/mL | Cmax [2]: 3790 ng/mL | clearance [2]: 6.22 mL/min/kg | half-life [2]: 6.37 h | Vd ([2]; read-out: Vss): 0.92 L/kg
Structure (SMILES): CC(C)C(=O)N1CCC2(CCCNC2=O)CC1 [Compound AD, 9-isobutyryl-2,9-diazaspiro[5.5]undecan-1-one]
% analgesia (Sprague Dawley rats; 0.1 mg/kg PO, 1 wk): 19.7% | % analgesia (Sprague Dawley rats; 0.1 mg/kg PO, 1 h): 38.7% | % analgesia (Sprague Dawley rats; 0.1 mg/kg PO, 24 h): 34.5% | % analgesia (Sprague Dawley rats; 1 mg/kg PO, 1 wk): 13.2% | % analgesia (Sprague Dawley rats; 1 mg/kg PO, 1 h): 24.1% | % analgesia (Sprague Dawley rats; 1 mg/kg PO, 24 h): 26.5% | % analgesia (Sprague Dawley rats; 10 mg/kg PO, 1 wk): 39.5% | % analgesia (Sprague Dawley rats; 10 mg/kg PO, 1 h): 61.2% | % analgesia (Sprague Dawley rats; 10 mg/kg PO, 24 h): 45.1%
